Literature values in patent publication US5519028A, “Antiviral preparations” (priority 1992, dated 1996).

Test system: viruses of vaccine
Settings: intracutaneously 200-600 μg or 2.5-500 mg/day; cited from earlier work

CCc1ccc2c3[nH]c4ccccc4c3cc[n+]2c1 [flavopereirine]
appearance and development of vital papules: prevents the appearance and development of vital papules
